Results as given in ChEMBL document CHEMBL5512620, “Design and synthesis of forsythin derivatives as anti-inflammatory agents for acute lung injury” (Eur J Med Chem, 2024).
The source made the active and inactive calls. The calls are words filed in the database; no cut-off is given here.

Tests used:
RAW264.7 [1] = test: Cytotoxicity activity mouse RAW264.7 cells assessed as effect on cell viability at 25 uM incubated for 24 hrs by MTT assay; assay type: toxicity, cell-based; conditions: raw264.7, 24 h
RAW264.7 [2] = test: Antiinflammatory activity in mouse RAW264.7 cells assessed as inhibition of LPS-induced IL-6 secretion by measuring fold change at 25 uM preincubated with compound for 1 hr followed by LPS-induction and measured after 24 hrs by ELISA analysis relative to Forsythin; assay type: functional; conditions: time 25 hrs
RAW264.7 [3] = test: Antiinflammatory activity in mouse RAW264.7 cells assessed as reduction in LPS-induced NO release preincubated with compound for 1 hr followed by LPS-induction and measured after 24 hrs by ELISA analysis relative to control; assay type: functional, cell-based
RAW264.7 [4] = test: Antiinflammatory activity in mouse RAW264.7 cells assessed as reduction in LPS-induced IL-6 production preincubated with compound for 1 hr followed by LPS-induction and measured after 24 hrs by ELISA analysis relative to control; assay type: functional, cell-based
RAW264.7 [5] = test: Antiinflammatory activity in mouse RAW264.7 cells assessed as reduction in LPS-induced TNF-alpha production preincubated with compound for 1 hr followed by LPS-induction and measured after 24 hrs by ELISA analysis relative to control; assay type: functional, cell-based
RAW264.7 [6] = test: Anti-inflammatory activity in mouse RAW264.7 cells assessed as inhibition of LPS-induced iNOS […] expression preincubated with compound for 1 hr followed by LPS stimulation and measured after 24 hrs by Western blot analysis; assay type: functional, cell-based; conditions: dose 6.25-25 µM, time 25.0 hrs
RAW264.7 [7] = test: Anti-inflammatory activity in mouse RAW264.7 cells assessed as inhibition of LPS-induced COX-2 […] expression preincubated with compound for 1 hr followed by LPS stimulation and measured after 24 hrs by Western blot analysis; assay type: functional, cell-based; conditions: dose 6.25-25 µM, time 25.0 hrs
RAW264.7 [8] = test: Anti-inflammatory activity in mouse RAW264.7 cells assessed as inhibition of LPS-induced iNOS […] expression at 25 uM preincubated with compound for 1 hr followed by LPS stimulation and measured after 24 hrs by Western blot analysis; assay type: functional, cell-based; conditions: time 25.0 hrs
RAW264.7 [9] = test: Anti-inflammatory activity in mouse RAW264.7 cells assessed as inhibition of LPS-induced COX-2 […] expression at 25 uM preincubated with compound for 1 hr followed by LPS stimulation and measured after 24 hrs by Western blot analysis; assay type: functional, cell-based; conditions: time 25.0 hrs
[10] = biological target: Transcription factor p65 (Mus musculus) (UniProt Q04207); test: Inhibition of NF-kappaB p65 phosphorylation in mouse RAW264.7 cells at 6.25 to 25 uM pretreated with compound for 1 hr followed by LPS-induction and measured after 24 hrs by Western blot analysis; assay type: cell-based; conditions: dose 6.25-25 µM, time 25.0 hrs
Chain of Transcription factor p65 (Mus musculus) (Q04207 whole entry): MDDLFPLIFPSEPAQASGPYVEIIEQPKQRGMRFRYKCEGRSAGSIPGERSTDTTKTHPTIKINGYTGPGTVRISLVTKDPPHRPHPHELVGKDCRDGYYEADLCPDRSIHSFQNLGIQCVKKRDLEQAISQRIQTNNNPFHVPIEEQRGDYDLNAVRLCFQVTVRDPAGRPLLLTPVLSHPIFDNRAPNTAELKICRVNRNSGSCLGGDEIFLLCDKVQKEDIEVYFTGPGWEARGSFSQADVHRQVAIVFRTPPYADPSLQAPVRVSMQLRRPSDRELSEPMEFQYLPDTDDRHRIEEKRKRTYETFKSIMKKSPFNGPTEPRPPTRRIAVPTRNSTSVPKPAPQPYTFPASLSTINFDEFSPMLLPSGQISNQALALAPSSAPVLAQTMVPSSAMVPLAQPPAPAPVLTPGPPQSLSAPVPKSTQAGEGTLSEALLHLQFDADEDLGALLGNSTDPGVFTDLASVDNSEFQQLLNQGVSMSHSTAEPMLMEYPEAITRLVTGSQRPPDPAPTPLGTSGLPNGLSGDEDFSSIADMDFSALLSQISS

RAW264.7 [11] = test: Inhibition of IkappaB phosphorylation in mouse RAW264.7 cells at 6.25 to 25 uM pretreated with compound for 1 hr followed by LPS-induction and measured after 24 hrs by Western blot analysis; assay type: cell-based; conditions: dose 6.25-25 µM, time 25.0 hrs
[12] = biological target: Transcription factor p65 (Mus musculus) (UniProt Q04207); test: Inhibition of NF-kappaB signaling pathway in LPS-induced mouse RAW264.7 cells assessed as reduction in phosphorylated NF-kappaB to p65 relative expression at 6.25 to 25 uM pretreated with compound for 1 hr followed by LPS-induction and measured after 24 hrs by Western blot analysis; assay type: cell-based; conditions: dose 6.25-25 µM, time 25.0 hrs
RAW264.7 [13] = test: Inhibition of NF-kappaB signaling pathway in LPS-induced mouse RAW264.7 cells assessed as reduction in phosphorylated IkappaB to IkappaB relative expression at 6.25 to 25 uM pretreated with compound for 1 hr followed by LPS-induction and measured after 24 hrs by Western blot analysis; assay type: cell-based; conditions: dose 6.25-25 µM, time 25.0 hrs
RAW264.7 [14] = test: Antiinflammatory activity in mouse RAW264.7 cells assessed as reduction in LPS-induced ERK phosphorylation at 6.25 to 25 uM preincubated with compound for 1 hr followed by LPS-induction and measured after 24 hrs by Western blot analysis; assay type: functional, cell-based; conditions: dose 6.25-25 µM, time 25.0 hrs
RAW264.7 [15] = test: Antiinflammatory activity in mouse RAW264.7 cells assessed as reduction in LPS-induced JNK phosphorylation at 6.25 to 25 uM preincubated with compound for 1 hr followed by LPS-induction and measured after 24 hrs by Western blot analysis; assay type: functional, cell-based; conditions: dose 6.25-25 µM, time 25.0 hrs
RAW264.7 [16] = test: Antiinflammatory activity in mouse RAW264.7 cells assessed as reduction in LPS-induced p38 phosphorylation at 6.25 to 25 uM preincubated with compound for 1 hr followed by LPS-induction and measured after 24 hrs by Western blot analysis; assay type: functional, cell-based; conditions: dose 6.25-25 µM, time 25.0 hrs
Mus musculus [17] = test: Antiinflammatory activity in LPS-induced acute lung injury BALB/c mouse model assessed as reduction in cell infiltration in lung at 20 mg/kg, po administered for 3 days followed by LPS-induction for 1 hr and measured after 6 hrs by H and E staining based analysis; assay type: functional, organism-based; conditions: time 79.0 hrs
Mus musculus [18] = test: Antiinflammatory activity in LPS-induced acute lung injury BALB/c mouse model assessed as reduction in lung edema at 20 mg/kg, po administered for 3 days followed by LPS-induction for 1 hr and measured after 6 hrs by H and E staining based analysis; assay type: functional, organism-based; conditions: time 79.0 hrs
Mus musculus [19] = test: Antiinflammatory activity in LPS-induced acute lung injury BALB/c mouse model assessed as improvement in alveolar structure at 20 mg/kg, po administered for 3 days followed by LPS-induction for 1 hr and measured after 6 hrs by H and E staining based analysis; assay type: functional, organism-based; conditions: time 79.0 hrs
Mus musculus [20] = test: Antiinflammatory activity in LPS-induced acute lung injury BALB/c mouse model assessed as reduction in W/D weight gain ratio in lung at 5 to 20 mg/kg, po administered for 3 days followed by LPS-induction for 1 hr and measured after 6 hrs; assay type: functional, organism-based; conditions: dose 5-20 mg/kg, time 79.0 hrs
Mus musculus [21] = test: Antiinflammatory activity in LPS-induced acute lung injury BALB/c mouse model assessed as downregulation of IL-6 level in BALF at 5 to 20 mg/kg, po administered for 3 days followed by LPS-induction for 1 hr and measured after 6 hrs by ELISA analysis; assay type: functional, organism-based; conditions: dose 5-20 mg/kg, time 79.0 hrs
Mus musculus [22] = test: Antiinflammatory activity in LPS-induced acute lung injury BALB/c mouse model assessed as downregulation of TNF-alpha level in BALF at 5 to 20 mg/kg, po administered for 3 days followed by LPS-induction for 1 hr and measured after 6 hrs by ELISA analysis; assay type: functional, organism-based; conditions: dose 5-20 mg/kg, time 79.0 hrs
Mus musculus [23] = test: Antiinflammatory activity in LPS-induced acute lung injury BALB/c mouse model assessed as reduction in NO production in BALF at 5 to 20 mg/kg, po administered for 3 days followed by LPS-induction for 1 hr and measured after 6 hrs by Griess reagent based analysis; assay type: functional, organism-based; conditions: dose 5-20 mg/kg, time 79.0 hrs
Mus musculus [24] = test: Antiinflammatory activity in LPS-induced acute lung injury BALB/c mouse model assessed as downregulation of IL-6 level in BALF at 20 mg/kg, po administered for 3 days followed by LPS-induction for 1 hr and measured after 6 hrs by ELISA analysis; assay type: functional, organism-based; conditions: time 79.0 hrs
Mus musculus [25] = test: Antiinflammatory activity in LPS-induced acute lung injury BALB/c mouse model assessed as downregulation of TNF-alpha level in BALF at 20 mg/kg, po administered for 3 days followed by LPS-induction for 1 hr and measured after 6 hrs by ELISA analysis; assay type: functional, organism-based; conditions: time 79.0 hrs
Mus musculus [26] = test: Antiinflammatory activity in LPS-induced acute lung injury BALB/c mouse model assessed as reduction in NO production in BALF at 20 mg/kg, po administered for 3 days followed by LPS-induction for 1 hr and measured after 6 hrs by Griess reagent based analysis; assay type: functional, organism-based; conditions: time 79.0 hrs
Mus musculus [27] = test: Antiinflammatory activity in LPS-induced po dosed acute lung injury BALB/c mouse model assessed as inhibition of iNOS expression administered for 3 days followed by LPS-induction for 1 hr and measured after 6 hrs by Western blot analysis; assay type: functional, organism-based; conditions: dose 5-20 mg/kg, time 79.0 hrs
Mus musculus [28] = test: Antiinflammatory activity in LPS-induced po dosed acute lung injury BALB/c mouse model assessed as inhibition of COX-2 expression administered for 3 days followed by LPS-induction for 1 hr and measured after 6 hrs by Western blot analysis; assay type: functional, organism-based; conditions: dose 5-20 mg/kg, time 79.0 hrs
RAW264.7 [29] = test: Antiinflammatory activity in mouse RAW264.7 cells assessed as inhibition of LPS-induced IL-6 production at 25 uM preincubated with compound for 1 hr followed by LPS-induction and measured after 24 hrs by ELISA analysis relative to control; assay type: functional; conditions: time 25 hrs
RAW264.7 [30] = test: Antiinflammatory activity in mouse RAW264.7 cells assessed as inhibition of LPS-induced IL-6 release at 25 uM preincubated with compound for 1 hr followed by LPS-induction and measured after 24 hrs by ELISA analysis; assay type: functional, cell-based; conditions: time 25.0 hrs

Q: For COc1ccc([C@@H]2OC[C@H]3[C@@H]2CO[C@@H]3c2ccc(O[C@H]3O[C@H](COC(=O)c4cn(-c5ccc(F)cc5)nn4)[C@@H](O)[C@H](O)[C@H]3O)c(OC)c2)cc1OC, which Activity (RAW264.7 [1]) is on record?
A: Non-Toxic

Q: COc1ccc([C@@H]2OC[C@H]3[C@@H]2CO[C@@H]3c2ccc(O[C@H]3O[C@H](COC(=O)CNC(=O)OC(C)(C)C)[C@@H](O)[C@H](O)[C@H]3O)c(OC)c2)cc1OC was tested. Which Activity (RAW264.7 [1]) did it give?
A: Non-Toxic

Q: With COc1ccc([C@@H]2OC[C@H]3[C@@H]2CO[C@@H]3c2ccc(O[C@H]3O[C@H](COC(=O)[C@H](Cc4c[nH]c5ccccc45)NC(=O)OC(C)(C)C)[C@@H](O)[C@H](O)[C@H]3O)c(OC)c2)cc1OC as the compound, how does the Activity (RAW264.7 [1]) read?
A: Non-Toxic

Q: What does the source list for COc1ccc([C@@H]2OC[C@H]3[C@@H]2CO[C@@H]3c2ccc(O[C@H]3O[C@H](COC(=O)[C@H](Cc4ccccc4)NC(=O)OC(C)(C)C)[C@@H](O)[C@H](O)[C@H]3O)c(OC)c2)cc1OC?
A: Activity (RAW264.7 [1]): Non-Toxic; fold change (FC) (RAW264.7 [2]): 7.5; IC50 (RAW264.7 [3]): 10.9 µM; IC50 (RAW264.7 [4]): 4.93 µM; IC50 (RAW264.7 [5]): > 25 µM; Activity (RAW264.7 [6]): Dose-Dependent Effect; Activity (RAW264.7 [7]): Dose-Dependent Effect; Activity (RAW264.7 [8]): Active; Activity (RAW264.7 [9]): Active; inhibition [10]: Active; inhibition (RAW264.7 [11]): Active; inhibition [12]: Active; inhibition (RAW264.7 [13]): Active; Activity (RAW264.7 [14]): Active; Activity (RAW264.7 [15]): Active; Activity (RAW264.7 [16]): inactive; Activity (Mus musculus [17]): Active; Activity (Mus musculus [18]): Active; Activity (Mus musculus [19]): Active; Activity (Mus musculus [20]): Active; Activity (Mus musculus [21]): Active; Activity (Mus musculus [22]): Active; Activity (Mus musculus [23]): Active; Activity (Mus musculus [24]): Active; Activity (Mus musculus [25]): Active; Activity (Mus musculus [26]): Active; Activity (Mus musculus [27]): Dose-Dependent Effect; Activity (Mus musculus [28]): Dose-Dependent Effect; inhibition at 25 µM (RAW264.7 [29]): 91.8%; Activity (RAW264.7 [30]): Active

Q: COc1ccc([C@@H]2OC[C@H]3[C@@H]2CO[C@@H]3c2ccc(O[C@H]3O[C@H](COC(=O)[C@H](CCSC)NC(=O)OC(C)(C)C)[C@@H](O)[C@H](O)[C@H]3O)c(OC)c2)cc1OC was tested. Which Activity (RAW264.7 [1]) did it give?
A: Non-Toxic

Q: COc1ccc([C@@H]2OC[C@H]3[C@@H]2CO[C@@H]3c2ccc(O[C@H]3O[C@H](COC(=O)c4cn(-c5ccc(C)cc5)nn4)[C@@H](O)[C@H](O)[C@H]3O)c(OC)c2)cc1OC was tested. Which Activity (RAW264.7 [1]) did it give?
A: Non-Toxic

Q: With COc1ccc([C@H]2OC[C@@H]3[C@H]2CO[C@@H]3c2ccc(O[C@@H]3O[C@@H](COC(=O)c4cnc5ccccc5c4)[C@H](O)[C@@H](O)[C@@H]3O)c(OC)c2)cc1OC (stereo in doubt) as the compound, how does the Activity (RAW264.7 [1]) read?
A: Non-Toxic

Q: COc1ccc(-n2cc(C(=O)OC[C@H]3O[C@H](Oc4ccc([C@H]5OC[C@H]6[C@@H]5CO[C@H]6c5ccc(OC)c(OC)c5)cc4OC)[C@H](O)[C@@H](O)[C@@H]3O)nn2)cc1 was tested. Which Activity (RAW264.7 [1]) did it give?
A: Non-Toxic
